Results published in the supplement of paper PMC13380429.

Columns and labels:
Details in all cases: 72 h
Vero E6 [1] = assay: drug sensitivity score (DSS) for viability; higher = more toxic; extreme values may be limits of the assay
HepG2 [2] = assay: as above
Calu-3 [3] = assay: as above
Caco-2 [4] = assay: as above
U2OS [5] = assay: as above
Vero E6 [6] = assay: cell viability relative to DMSO; higher = less toxic
HepG2 [7] = assay: as above
Calu-3 [8] = assay: as above
Caco-2 [9] = assay: as above
U2OS [10] = assay: as above
Vero E6 [11] = assay: relative viability EC50 (midpoint between 100% and the lowest measured viability); higher = less toxic
HepG2 [12] = assay: as above
Calu-3 [13] = assay: as above
Caco-2 [14] = assay: as above
U2OS [15] = assay: as above

Row | Structure (SMILES) | drug sensitivity score (Vero E6 [1]) | drug sensitivity score (HepG2 [2]) | drug sensitivity score (Calu-3 [3]) | drug sensitivity score (Caco-2 [4]) | drug sensitivity score (U2OS [5]) | cell viability (Vero E6 [6]; 1 nM) [%] | cell viability (Vero E6 [6]; 10 nM) [%] | cell viability (Vero E6 [6]; 100 nM) [%] | cell viability (Vero E6 [6]; 1000 nM) [%] | cell viability (Vero E6 [6]; 10000 nM) [%] | cell viability (HepG2 [7]; 1 nM) [%] | cell viability (HepG2 [7]; 10 nM) [%] | cell viability (HepG2 [7]; 100 nM) [%] | cell viability (HepG2 [7]; 1000 nM) [%] | cell viability (HepG2 [7]; 10000 nM) [%] | cell viability (Calu-3 [8]; 1 nM) [%] | cell viability (Calu-3 [8]; 10 nM) [%] | cell viability (Calu-3 [8]; 100 nM) [%] | cell viability (Calu-3 [8]; 1000 nM) [%] | cell viability (Calu-3 [8]; 10000 nM) [%] | cell viability (Caco-2 [9]; 1 nM) [%] | cell viability (Caco-2 [9]; 10 nM) [%] | cell viability (Caco-2 [9]; 100 nM) [%] | cell viability (Caco-2 [9]; 1000 nM) [%] | cell viability (Caco-2 [9]; 10000 nM) [%] | cell viability (U2OS [10]; 1 nM) [%] | cell viability (U2OS [10]; 10 nM) [%] | cell viability (U2OS [10]; 100 nM) [%] | cell viability (U2OS [10]; 1000 nM) [%] | cell viability (U2OS [10]; 10000 nM) [%] | relative viability EC50 (Vero E6 [11]) [µM] | relative viability EC50 (HepG2 [12]) [µM] | relative viability EC50 (Calu-3 [13]) [µM] | relative viability EC50 (Caco-2 [14]) [µM] | relative viability EC50 (U2OS [15]) [µM]
1 | CC1(C)O[C@@H]2C[C@H]3[C@@H]4CCC5=CC(=O)C=C[C@]5(C)[C@@]4(F)[C@@H](O)C[C@]3(C)[C@]2(C(=O)CO)O1 [TRIAMCINOLONE ACETONIDE] | 0 | 0 | 0 | 0 | 0 | 102 | 99 | 95.3 | 97.4 | 100 | 103 | 91.3 | 94.6 | 101 | 93 | 98.4 | 95.4 | 87.6 | 103 | 106 | 94.2 | 96.2 | 96.8 | 89 | 93.1 | 99.4 | 95.7 | 94.6 | 90.7 | 95.2 | > 10 | > 10 | > 10 | > 10 | > 10
2 | C/C(=C\c1ccc(C(=O)O)cc1)c1ccc2c(c1)C(C)(C)CCC2(C)C [TTNPB] | 0 | 0 | 3.9 | 0 | 0 | 94.7 | 102 | 98.3 | 97.9 | 102 | 94.2 | 106 | 108 | 100 | 108 | 95 | 95.6 | 84.3 | 81.7 | 77.2 | 98.1 | 95.1 | 95 | 95.3 | 91.9 | 99.3 | 99.2 | 94.3 | 93.2 | 92.5 | > 10 | > 10 | > 10 | > 10 | > 10
3 | O=C(COc1cccc2c(=O)[nH]ccc12)c1ccccc1 [UPF-1069] | 0 | 0.1 | 0 | 0.8 | 0 | 94.2 | 108 | 107 | 93.8 | 94.6 | 97 | 95.6 | 98.5 | 89 | 88 | 98.2 | 101 | 92.9 | 96.8 | 90.2 | 95.6 | 92.5 | 94.8 | 87 | 84.5 | 102 | 101 | 95.1 | 103 | 93.9 | > 10 | > 10 | > 10 | > 10 | > 10
4 | O=C(Nc1cc(-c2ccccc2)nn1-c1ccccc1)c1ccc([N+](=O)[O-])cc1 [VU29] | 0.2 | 0 | 0 | 0 | 0 | 100 | 96.4 | 101 | 94.2 | 88.6 | 105 | 112 | 108 | 100 | 90.2 | 102 | 102 | 107 | 98.5 | 111 | 106 | 96.2 | 102 | 95 | 96.6 | 110 | 101 | 107 | 99 | 99 | > 10 | > 10 | > 10 | > 10 | > 10
5 | Cc1cccc(COc2cccc(/C=C3\C(=O)NN(c4ccccc4)C3=O)c2)c1 [Y16] | 0.2 | 0 | 0 | 0 | 0 | 98.5 | 96.7 | 98.8 | 96.8 | 87.8 | 92.8 | 93.5 | 98.3 | 103 | 87.6 | 104 | 104 | 97.3 | 102 | 102 | 100 | 97.9 | 101 | 93.6 | 100 | 99.5 | 98.4 | 97.9 | 93.6 | 97.8 | > 10 | > 10 | > 10 | > 10 | > 10
6 | O=C(O)Cc1ccc(OCCNC[C@H](O)c2ccccc2)cc1 [ZD-2079] | 0 | 0 | 0 | 0 | 0 | 104 | 100 | 98.8 | 102 | 100 | 109 | 110 | 107 | 101 | 94.3 | 98.5 | 92.7 | 105 | 98 | 96.2 | 92.1 | 102 | 104 | 99.3 | 95 | 102 | 94.8 | 107 | 98.5 | 104 | > 10 | > 10 | > 10 | > 10 | > 10
